Results published in US6410218B1, “Plasma-like solution” (BioTime, Inc., priority 1993, dated 2002).

Key:
[1] = Buffering capacity in a cell-free system (addition of 1.25 M HCl); type: physicochemical
Protocol: By contrast, the pH of HLB solution (initial pH 7.7) drops below 7.2 with the addition of about 0.01 ml of a 1.25 M HCl solution.
When the solution of the present invention is used as a blood substitute at hypothermic temperatures, medical grade sterile NaHCO3 is added to the heat sterilized solution (HL solution). The solution containing NaHCO3 is called HLB solution. Under in vivo conditions with oxygenation, HLB solution is shown to maintain pH above 7.3 in temperatures ranging from 1.6-36.1° C. (Tables 2 and 3).

[2] = cited from earlier work

Compound	initial pH ([1]; cell-free solution before HCl addition)	volume of 1.25 M HCl solution added with pH maintained above 7.2 ([1]; cell-free, initial pH about 7.7)	share of dose eliminated in the urine ([2]; 500 ml intravenous dose of 6% solution, after 24 hours)	share of dose remaining circulating ([2]; after 1 week)
NCC(CO)(CO)CO [25 mM TRIS, Tris[Hydroxymethyl]methyl aminomethane]	about 7.7	up to 0.12 mls	–	–
hydroxyethyl starch	–	–	approximately 33%	Approximately 10%
